Results as given in patent US6663862B1, “Reagents for detection and purification of antibody fragments” (Duke University, priority 1999, dated 2003).
Where a chain is given by its changes, count along the chain named. Marks after values point to notes of the source that are not given here.

Test system: Fc fragment of human IgG
Test: Binding of B1 mutants to human IgG Fc fragment (acrylodan fluorescence titration; competition assay for weak binders)
Conditions: for DDG = −RTIn (Kd wild type/Kd mutant): T = 298K, relative to Q32C wild-type construct; for fold increase in Kd: hFc binding, relative to wild-type (Q32C) B1; for Kd: hFc, Q32C background, 20 mM KPO4 (pH 6.0), 25° C., direct titration, or competition with labeled wild-type B1-hFc complex for weak binders
From the text: Fluorophore coupling and iodoacetamide blocking. All of the above mutations were constructed into the Q32C background to allow site-specific covalent coupling with acrylodan for fluorescent binding assays as described by Sloan, D. J. and Hellinca, H. W. (1998) Prot. Eng. 11:819-823. In competitive binding experiments between fluorescently labeled wild-type B1 and unlabeled mutants, the free thiol in the mutant protein was blocked by reaction with iodoacetamide.
Binding of B1 mutants to human IgG Fc fragment. The binding constants for each of the alanine mutants were measured as an increase in fluorescence by direct titration of Fc fragment of human IgG (ICN Biomedicals, Costa Mesa, Calif.) into a solution containing 250nM acrylodan-conjugated B1 domain mutant in 20 mM KPO4 (pH 6.0) at 25° C. (excitation 392 nm; emission 500 nm; slit widths of 4 and 16 nm respectively). After each addition of protein, the solution was allowed to equilibrate for 30 seconds before the final fluorescence value was recorded.
Each titration comprised 20 points and was performed in triplicate. The data were fit to a binding isotherm that described a single binding site and takes into account all of the species present (Segel, I. H. (1975) Enzyme Kinetics, John Wiley & Sons, New York, N.Y.): [formula]
where F is the measured fluorescence with FO and Fmax representing the initial and final values, respectively. [B1]t and [hFc]t are the concentrations of B1 and hFc respectively, and the Kd is the disassociation constant. This equation is referred to herein as “Equation 1”.
The binding constants of weak binders (greater than 50-fold increases in Kd) were measured in a competition assay with a pre-formed complex (250 nM) of wild type Q32C construct conjugated to acrylodan and hFc. Binding constants were determined by measuring the decrease in fluorescence of the complex by the addition of iodoacetamide blocked mutant B1 domains. From these competition binding curves the Kd for each of the mutant B1 domains was calculated from the binding isotherm (Fierke, C. A. et al. (1991) Biochemistry 30:11054-11063): [formula]
where F is the measured fluorescence with Fo and Ff representing the initial and final values respectively. [B1wt] and [B1mut] are the concentrations of B1 wild type and mutant respectively, and the Kd is the disassociation constant of the mutant or wild type. This Equation is referred to herein as “Equation 2”.
Binding studies. The interaction of the mutant B1 domain with the hFc was measured using a fluorescence method described by Sloan, D. J. and Hellinga, H. W. (1998) Prot. Eng. 11:819-823, which relies on the attachment of an environmentally sensitive fluorophore placed at the rim of the binding site in a location such that its fluorescence changes upon formation of the complex by virtue of alterations in conformational degrees of freedom and solvent accessibility, without adversely affecting the binding constant. Binding constants for hFc were determined in a direct titration experiment in which purified hFc was added to a solution of a Q32C B1 mutant to which the fluorophore acrylodan was covalently coupled at position 32C (FIG. 2A). The binding constants for all the B1 mutants were determined in the Q32C background (Table 4).
This approach was used to avoid having to use large quantities of pure hFc.

| Substance | DDG = −RTIn (Kd wild type/Kd mutant) | fold increase in Kd [fold] | Kd [µM] |
| --- | --- | --- | --- |
| 3: B1 domain of protein G, E27A mutant in Q32C background [Example 3] | >4.9^f kcal/mole | > 4000 | > 1000 |
| 1: B1 domain of protein G with Q32C mutation and His tag; the wild-type construct relative to which all measurements are made [Example 1, reference compound] | 0 kcal/mol |  | 0.24 |
| 4: B1 domain of protein G, K28A mutant in Q32C background [Example 4] | 1.3 kcal/mol |  | 2 |
| 6: B1 domain of protein G, N35A mutant in Q32C background [Example 6] | 2.4 kcal/mol | 50 | 13 |
| 8: B1 domain of protein G, E42A mutant in Q32C background [Example 8] | 0.4 kcal/mol |  | 0.46 |
| 9: B1 domain of protein G, W43A mutant in Q32C background [Example 9] | 3.8 kcal/mol | 580 | 140 |
| 5: B1 domain of protein G, K31A mutant in Q32C background [Example 5] | 3.5 kcal/mol | 350 | 85 |
| 10: B1 domain of protein G, T44/Y45A mutant in Q32C background [Example 10] | 2.0 kcal/mol |  | 6.5 |
| 2: B1 domain of protein G, T25A mutant in Q32C background [Example 2] | 0.24 kcal/mol |  | 0.36 |
| 7: B1 domain of protein G, D40A mutant in Q32C background [Example 7] | 0.3 kcal/mol |  | 0.38 |
